Patent publication US8158811B2, “Unsaturated fatty hydroxy acid derivatives and the dermocosmetologic use thereof” (Pierre Fabre Dermo-Cosmetique, priority 2005, dated 2012)

What was measured:
PAR-2 receptors = target: T1, PAR-2 receptors (Homo sapiens, UniProt P55085); experiment: calcium flux induced by trypsin stimulation of PAR-2 receptors in HaCaT keratinocytes (Fluo-4/AM); assay type: cell-based; conditions: trypsin 10 nM
T1 construct: PAR-2 receptors for trypsin present in human keratinocytes from the HaCaT line; endogenous in cells; host or cells: HaCaT human keratinocytes
T1 sequence (P55085 26-397): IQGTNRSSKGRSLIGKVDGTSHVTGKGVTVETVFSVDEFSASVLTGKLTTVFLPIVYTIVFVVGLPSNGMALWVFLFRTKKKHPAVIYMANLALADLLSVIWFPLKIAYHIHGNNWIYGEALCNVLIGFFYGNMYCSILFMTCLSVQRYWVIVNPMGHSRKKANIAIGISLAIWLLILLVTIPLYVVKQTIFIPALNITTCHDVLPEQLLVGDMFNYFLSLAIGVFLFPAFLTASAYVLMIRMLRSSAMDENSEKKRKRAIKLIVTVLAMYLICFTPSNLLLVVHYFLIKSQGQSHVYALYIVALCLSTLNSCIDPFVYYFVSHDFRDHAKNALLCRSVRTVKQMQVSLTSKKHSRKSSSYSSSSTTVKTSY
Excerpt: We therefore considered evaluating anti-PAR-2 activity of hydroxyl acid derivatives of formula I on the influx of intracellular calcium induced after specific stimulation by PAR-2 receptors for trypsin present in human keratinocytes from the HaCaT line.
This technique is based on the use of an esterified fluorescent probe by an AM group which facilitates its penetration by passive diffusion into the cell. The probe used is Fluo-4/AM. Only the de-esterified form bound to the calcium ion is excitable in fluorescence (at 485 nm) and emits at 535 nm.
In vitro, at the cell level, specific stimulation of the PAR-2 receptors by trypsin leads to mobilisation of intra and extracellular calcium detected with the aid of the fluorescent probe.

[1] = system: murine melanome cell line B16-F10; experiment: melanin synthesis, colorimetric assay, basal and after α-MSH; assay type: cell-based; conditions: basal situation, 30 μg/ml
Procedure: The modulating effect of unsaturated fatty hydroxy acid derivatives on melanogenesis was analysed. To do this, measurement of melanin synthesis by colorimetric assay was performed on a murine melanome cell line: line B16-F10.
The effect of products was investigated in a basal situation and after stimulation by α-MSH in order to determine depigmenting capacity.
Levels of extracellular and intracellular melanin were measured by spectrophotometry at a wavelength of 405 nm according to the protocol described by Anob et al., 1999. The amount of pigment was determined using a standard melanin range and analysis on Microwin software (Berthold Biotechnologies). A total protein assay was carried out for intracellular melanin samples by means of the BCA-Copper method at 540 nm. The standard range was made up using standard protein BSA (Bovine Serum Albumin).

Structure (SMILES) | % inhibition (PAR-2 receptors; 10 μg/ml) [%] | % stimulation (PAR-2 receptors; 10 μg/ml) [%] | % inhibition (PAR-2 receptors; 30 μg/ml) [%] | % stimulation (PAR-2 receptors; 30 μg/ml) [%] | % inhibition (PAR-2 receptors; 100 μg/ml) [%] | % stimulation (PAR-2 receptors; 100 μg/ml) [%] | inhibition of melanin synthesis [1] [%] | % inhibition (PAR-2 receptors; 0.1 μg/ml) [%] | % stimulation (PAR-2 receptors; 0.1 μg/ml) [%] | % inhibition (PAR-2 receptors; 0.3 μg/ml) [%] | % stimulation (PAR-2 receptors; 0.3 μg/ml) [%] | % inhibition (PAR-2 receptors; 1 μg/ml) [%] | % stimulation (PAR-2 receptors; 1 μg/ml) [%] | % inhibition (PAR-2 receptors; 3 μg/ml) [%] | % stimulation (PAR-2 receptors; 3 μg/ml) [%]
O=C(O)/C=C/CCCCCCCCCCCO [n=10, R=H, Rn=H, R1=H, 14-hydroxy-tetradec-2t-enoic acid] | −17 | 15.33 | −4 | 14.10 | 39 | 9.84 | 15 | – | – | – | – | – | – | – | –
O=C(O)C(F)=CCCCCCCCCCCCCCCO [n=13, R=H, Rn=H, R1=F, 17-hydroxy-heptadec-2-fluoro-2-enoic acid] | 42 | 9.55 | – | – | – | – | – | −1 | 13.78 | 6 | 13.06 | 9 | 12.74 | 7 | 12.97
